Literature values, collected in patent US5763196A, “Assays using cross-linked polypeptide fragments of β-galactosidase” (priority 1996, dated 1998).

Tested on: interleukin-1-β converting enzyme (ICE protease)

CNC(=O)[C@H](CC(=O)O)NC(=O)[C@H](C)NC(=O)[C@@H](NC(=O)[C@H](Cc1ccc(O)cc1)NC(C)=O)C(C)C [Ac-Tyr-Val-Ala-Asp-NH-CH3]
minimal and best peptide substrate found to date (Thornberry, Nature 356:768-74 (1992)): minimal and best peptide substrate

CC(=O)N[C@@H](Cc1ccc(O)cc1)C(=O)N[C@H](C(=O)N[C@@H](C)C(=O)N[C@@H](CC(=O)O)C(=O)CCl)C(C)C [Ac-Tyr-Val-Ala-Asp-*]
inhibition of ICE protease (in words) (Nature 375:78-81 (1995)): potent inhibitor
